From patent US20140315972A1, “RS)-2-(2-oxo-4-phenylpyrrolidin-1-yl)acetamide compound having modulatory activity with a commensurate effect, pharmaceutical substance (variants) and its application, composition (variants) thereof” (priority 2011, published 2014)
Marks after values point to notes of the source that are not given here.

Assays:
[1] = tested on: rats; assay: Retrograde amnesia of CRPA induced by electroshock and scopolamine, adult rats; type: in vivo
Excerpt: Phenotropil has a pronounced mnemotropic and nootropic activity. The results of the study of the antiamnestic activity (classical technique in the equipment manufactured by Lafayette Instrument Co, USA) in the retrograde amnesia of the passive avoidance conditional reflex (CRPA) induced by maximal electroshock (MES) and scopolamine in male rats (180-250 g) are shown in Table 7. […] Taking into account the studies using the open field and cross maze tests, the nootropic action component of the modulatory drug not only may be more pronounced, but is broader in manifestation depending on the type of disorder or in unfamiliar situational conditions. The pronounced nootropic activity of Phenotropil (100, 200, 300 mg/kg) also manifests in rat pups of both sexes 30-35 days of age (Table 7.1) after scopolamine-induced CRPA amnesia.

[2] = tested on: mice; assay: Average life duration (ALD) of mice; type: in vivo
[3] = tested on: mice; assay: Fertility of female mice aged 510 days; type: in vivo
Method: Investigation of the effect of Phenotropil on the fertility of mice was performed in the spring period in females aged 510 days (30 animals per group). Termination of the reproductive age was established by placing every three females to a fertile male. Mating was determined by the presence of vaginal plugs. Females not mated during one month were included in the study. Throughout the entire study period (32 days), Phenotropil was administered one time per day intragastrically to the experimental group in a dose of 100 mg/kg with distilled water; the control animals received distilled water. On the eighth day of the experiment, the females were introduced to males in the following combination: two experimental and one control animal or […]. The procedure was repeated for females not covered at each stage. The same fertile males were not used for mating.

[4] = tested on: mice; assay: Hypobaric hypoxia in pressure chamber, adult mice; type: in vivo; settings: for Duration of life: adult mice, hypobaric hypoxia
[5] = Solubility; type: physicochemical
Excerpt: The crystalline powder of the Phenotropil substances is not volatile, has white, rarely white to slightly yellowish or slightly cream color, bitter taste (bitter taste that disappears in the mouth rather quickly after dissolution, leaving no unpleasant sensations). In the related products, the bitter taste persists. The Compounds are sparingly soluble in water and saline, moderately soluble in 96.0% alcohol and chloroform. Readily soluble in water and saline under heating, but the solutions are not stable during cooling and storage under normal conditions (not more than 2 hours, which is acceptable for the extemporaneous preparations and research), moderately soluble in 5.0% glucose solution, dissolve well in the presence of solubilizers and emulsifiers. Tween80 and cyclodextrins increase solubility in water, especially Tween80, while cyclodextrins have limitations by concentration. Sterile 0.001-3% solutions of Phenotropil in the presence of cyclodextrin or Tween (water for injection, Phenotropil, cyclodextrin (or Tween solution) were thoroughly stirred for 30 minutes, filtered, dispensed into ampoules of neutral glass, the ampoules were sealed and sterilized for 15 minutes at 120° C.). Sterile solutions are storage stable for at least 12 months. The ultimate shelf life is not specified; the samples are being stored.

[6] = tested on: IL-2; assay: Cytokine profile in supernatants of peripheral mononuclear cultures (ELISA), asthenoneurotic patients; type: in vivo, human; settings: for IL-2 (×10): asthenoneurotic disorders, humans
Method: (§1) The study of immunocompetent activity of Phenotropil included patients with neurasthenia and organic asthenic disorder (20-47 years) of both sexes (men 37%, women 63%). Control group included practically healthy people (20 people). The study groups were similar in age and sex ratio. Phenotropil was administered at a dose of 100 mg/day, one time in the morning for 30 days. Study of the immune and mental status (level of IL-1, IL-2, IL-3, IL-6, α-TNF, α-INF in supernatants of cultures of peripheral mononuclears from whole blood) was carried out before treatment and at days 7, 14, 21 after the therapy course (30 days) and after 3 months of therapy. Blood sampling for analysis was carried out at the same time of day in the control group and in the group of patients. Peripheral mononuclear cells were isolated from the whole blood; interleukin level was determined by ELISA kits (“Immunotech”, France).

[7] = tested on: α-TNF; assay: as above; type: in vivo, human; settings: for α-TNF (×100): asthenoneurotic disorders, humans
Method: as §1

[8] = tested on: α-INF; assay: as above; type: in vivo, human; settings: for α-INF: asthenoneurotic disorders, humans
Method: as §1

[9] = tested on: IL-6; assay: as above; type: in vivo, human; settings: for IL-6: asthenoneurotic disorders, humans
Method: as §1

[10] = tested on: IL-3; assay: as above; type: in vivo, human; settings: for IL-3 (×10): asthenoneurotic disorders, humans
Method: as §1

[11] = tested on: IL-1; assay: as above; type: in vivo, human; settings: for IL-1: asthenoneurotic disorders, humans
Method: as §1

[12] = Plasma electrolyte balance at course administration; type: in vivo; settings: rats
[13] = 100 mg/kg i.g. daily, by the morning of day 9
[14] = After treatment (one month course)
[15] = patients, 100 mg/day 30 days, after course
[16] = patients, three months after the therapy
[17] = 4-week administration 300 mg/kg

What does the source list for `NC(=O)CN1CC(c2ccccc2)CC1=O` (racemic) [Compound 1, (RS)-2-(2-oxo-4-phenylpyrrolidine-1-yl)acetamide]?
Latent period of the first entry into the chamber at testing the preservation of CRPA, after 24 hours ([1]; ECS amnesia, 25 mg/kg): 65.6* seconds; Latent period of the first entry into the chamber at testing the preservation of CRPA, after 24 hours ([1]; ECS amnesia, 50 mg/kg): 74.4* seconds; Latent period of the first entry into the chamber at testing the preservation of CRPA, after 24 hours ([1]; ECS amnesia, 100 mg/kg): 112.5* seconds; Latent period of the first entry into the chamber at testing the preservation of CRPA, after 24 hours ([1]; scopolamine 1 mg/kg amnesia, 25 mg/kg): 78.8* seconds; Latent period of the first entry into the chamber at testing the preservation of CRPA, after 24 hours ([1]; scopolamine 1 mg/kg amnesia, 50 mg/kg): 96.0* seconds; Latent period of the first entry into the chamber at testing the preservation of CRPA, after 24 hours ([1]; scopolamine 1 mg/kg amnesia, 100 mg/kg): 125.3* seconds; ALD increase vs placebo-treated control ([2]; 50 mg/kg): 15.3%; ALD increase vs placebo-treated control ([2]; 100 mg/kg): 29.3%; ALD increase vs placebo-treated control ([2]; 200 mg/kg): 12.5%; ALD increase vs placebo-treated control ([2]; 300 mg/kg): 19.6%; increase in life duration ([2]; doses below 50.0 mg/kg): 8.0-10.0%; females left uncovered (of 30) ([3]; 100 mg/kg i.g. daily, after 32 days): 6; females covered (of 30) [3, 13]: 9; females covered, % of the total number in the group [3, 13]: 30.0%; females covered (of 30) ([3]; 100 mg/kg i.g. daily, by the morning of day 17): 11; females covered (of 30) ([3]; 100 mg/kg i.g. daily, by the morning of day 25): 4; Fertility (% of animals in the group) ([3]; mice, 100 mg/kg): 80.0 * %; increase of survival time vs control ([4]; 50 mg/kg): 65.0%; increase of survival time vs control ([4]; 100 mg/kg): 147.8%; increase of survival time vs control ([4]; 300 mg/kg): 591.0%; Duration of life ([4]; 50 mg/kg): 3.8 ± 0.5 min; Duration of life ([4]; 100 mg/kg): 5.7 ± 1.2 min; Duration of life ([4]; 300 mg/kg): 15.9 ± 0.4 min; solubility in 96% alcohol and chloroform [5]: moderately soluble; solubility in water (and saline) [5]: sparingly soluble in water; IL-2 (×10) [6, 14]: 2.09 ± 0.04; IL-2 (×10) ([6]; At 3 months after treatment): 2.21 ± 0.04; IL-2 level vs baseline values [6, 15]: +8.9%; IL-2 level vs baseline [6, 16]: +15.1%; α-TNF (×100) [7, 14]: 8.56 ± 0.60; α-TNF (×100) ([7]; At 3 months after treatment): 7.92 ± 0.54; α-TNF level vs baseline values [7, 15]: −11.6%; α-TNF level vs baseline [7, 16]: −18.2%; α-INF [8, 14]: 4.18 ± 0.06; α-INF ([8]; At 3 months after treatment): 4.11 ± 0.05; α-INF level vs baseline values [8, 15]: −10.3%; α-INF level vs baseline [8, 16]: −11.8%; IL-6 [9, 14]: 3.55 ± 0.15; IL-6 ([9]; At 3 months after treatment): 3.80 ± 0.03; IL-6 level vs baseline values [9, 15]: +11.3%; IL-6 level vs baseline [9, 16]: +19.0%; IL-3 (×10) [10, 14]: 2.13 ± 0.05; IL-3 (×10) ([10]; At 3 months after treatment): 2.23 ± 0.06; IL-3 level vs baseline values [10, 15]: +12.7%; IL-3 level vs baseline [10, 16]: +18.0%; IL-1 [11, 14]: 1.65 ± 0.03; IL-1 ([11]; At 3 months after treatment): 1.63 ± 0.04; IL-1 level vs baseline values [11, 15]: −3.5%; IL-1 level vs baseline [11, 16]: −4.6%; serum Ca ([12]; 4-week administration 50 mg/kg): 4.21 ± 0.23 mEq/l; serum K ([12]; 4-week administration 50 mg/kg): 3.15 ± 0.15 mEq/l; serum Na ([12]; 4-week administration 50 mg/kg): 127.3 ± 2.71 mEq/l; serum Ca [12, 17]: 4.69 ± 0.24 mEq/l; serum K [12, 17]: 3.44 ± 0.20 mEq/l; serum Na [12, 17]: 125.7 ± 3.43 mEq/l
